Reference: patent US20050272738A1, “Combined treatment with oxaliplatin and an epidermal growth factor receptor kinase inhibitor” (priority 2004, published 2005)
Values joined by “and” are separate entries in the source; they are usually repeats but may differ in a detail not shown here. Equal values may be shown once. Read-outs that look alike come from different tables or passages of the source.

Experiments:
[1] = system: LoVo human colon xenograft; assay: Anti-tumor efficacy in LoVo human colorectal xenograft in nude mice (experiments 525 and 540); type: in vivo, female athymic nu/nu mice
Text: The goal of this study is to assess the anti-tumor efficacy of the small molecule epidermal growth factor receptor inhibitor (EGFRi) Tarceva™ in combination with oxalipaltin on LoVo colorectal human xenograft, grown in female athymic nu/nu mice. Oxaliplatin is an agent that is currently used clinically in the treatment of colorectal cancer alone and in combination with other chemotherapeutic agents and/or radiation, depending on the stage of disease. In this study, the drugs were combined at their respective maximum tolerated dose (MTD) and also combined together at sub-optimal doses. All doses included in the combination groups were also included in the study as monotherapy arms. The attempt was to achieve maximum efficacy/regression without increased toxicity.
(§1) The health of all animals was determined daily by gross observation of experimental animals and by the analyses of blood samples of sentinel animals that were housed on the shared shelf racks. All animals were allowed to acclimate and recover from any shipping related stress for one week prior to experimental manipulation. […] Cages, bedding and water bottles were autoclaved before use and were changed weekly. […] All in vivo experiments were performed in accordance with protocols approved by the Roche Animal Care and Use Committee (RACUC). The Roche animal care facility is fully accredited by the American Association for the Accreditation of Lab Animal Care (AAALAC).
LoVo cells were grown in F-12K+20% FBS (not heat inactivated) and harvested. 5×10^6 cells/0.2 ml/mouse in PBS (Phosphate Buffered Saline) were implanted subcutaneously in the right flank on Aug.
Formulated compound was made up in one batch for the entire 3 week study.
Oxaliplatin was provided in clinical form. […] An aliquot of the stock vial solutions was taken for each dose group representing the drug needed for that group for the entire study duration and diluted out further with sterile saline, to provide a solution that renders a 0.2 ml dosing volume for each individual animal.
For study 540, animals were randomized according to tumor volume on day 17 post tumor implantation so that all groups had similar starting mean tumor volumes of 100-150 mm^3.
For efficacy study 540, treatment began on Sep. […] Tarceva™ was administered using a 1 cc syringe and 18-gauge gavage needles (0.2 ml/animal). Oxaliplatin was administered ip using a 1-cc syringe and 26-gauge needle (0.2 ml/animal). […] Treatment ended on Sep. […] No end of study drug exposure analysis was performed on this study.
(§2) Tumor measurements and mouse weights were taken two-three times per week for LoVo. All animals were individually followed throughout the experiment.
Efficacy data was graphically represented as the mean tumor volume+standard error of the mean (SEM).
Tumor volume (in cubic millimeters) was calculated using the ellipsoid formula: (D×(d2))/2 • where ‘D’ represents the large diameter of the tumor, and ‘d’ represents the small diameter.
In some cases, tumor regression and/or percent change in tumor volume was calculated using the formula: ((T−T0)/T0)×100 • where ‘T’ represents mean tumor volume of the treated group at a particular day and ‘T0’ represents mean tumor volume of the same treated group at initiation of treatment.
Statistical analysis was determined by the rank sum test and One Way Anova and a post-hoc Bonferroni t-test (SigmaStat, version 2.0, Jandel Scientific, San Francisco, Calif.).

[2] = Toxicity in LoVo efficacy study 540 (body weight, deaths, clinical signs); type: in vivo, female nude mice; settings: Tarceva 100 mg/kg (Group 2)
Procedure: as §1
For efficacy study 540, treatment began on Sep. […] Tarceva™ was administered using a 1 cc syringe and 18-gauge gavage needles (0.2 ml/animal). Oxaliplatin was administered ip using a 1-cc syringe and 26-gauge needle (0.2 ml/animal). All groups were treated q7d for 3 weeks (total 3 injections). Treatment ended on Sep. […] No end of study drug exposure analysis was performed on this study.
as §2

[3] = Maximum tolerated dose / tolerability of Tarceva in nude mice (MTD study and previous efficacy studies); type: in vivo, naïve female nude mice
Procedure: Preliminary studies were performed in naïve female nude mice to determine the maximum tolerated dose (MTD) of Tarceva™. The MTD was defined as a dose that renders <20% body weight loss and no death in a 14 day study. […] Based on literature, a dosage for oxaliplatin of 10 mg/kg, once a week intraperitoneal was adopted in the study (Cividalli A, et al. (2002) Int. J. Radiat. Oncol. Biol. Phys. 52(4):1092-1098).

[4] = system: HCT116 tumor model; settings: HCT116 model (data not shown)
[5] = system: colorectal cancer; settings: cited from earlier work
[6] = Tarceva 100 mg/kg qd, LoVo, study 540
[7] = oxaliplatin 5 mg/kg q7d ip, LoVo, study 540
[8] = oxaliplatin 10 mg/kg q7d ip, LoVo, study 540

## C#Cc1cccc(Nc2ncnc3cc(OCCOC)c(OCCOC)cc23)c1 [Tarceva™, [6,7-bis(2-methoxyethoxy)-4-quinazolin-4-yl]-(3-ethynylphenyl) amine]
[1]; Tarceva 25 mg/kg qd, LoVo, across experiments
  tumor growth inhibition: 53-79%
[1]; Tarceva 25 mg/kg qd, LoVo, study 540
  % T/C: 47%
[1]; Tarceva 25 mg/kg qd, LoVo, study 540, day 39 post tumor implant
  tumor growth inhibition: 53%
[1]; [6]
  % T/C: 2%
  number of partial regressions: four
  partial regressions (percent, in brackets): 16% and 7%
[1]; Tarceva 100 mg/kg qd, LoVo, study 540, day 39 post tumor implant
  tumor growth inhibition (TGI): 98%
[1]; Tarceva 100 mg/kg, LoVo, experiments 525 and 540
  tumors partially regressed: 40-60%
[1]; erlotinib 25 mg/kg monotherapy, LoVo (summary value)
  tumor growth inhibition (TGI): 79%
[1]; erlotinib 100 mg/kg monotherapy, LoVo
  mice showing partial regressions (PR): 6/10
[1]; erlotinib 100 mg/kg monotherapy, LoVo, experiment 525
  tumor growth inhibition (TGI): > 100%
[2]
  clinical signs: classic reddening of the skin
[3]; CMC/Tween formulation, 14 day study, MTD = <20% body weight loss and no death
  maximum tolerated dose (MTD): 100 mg/kg qd
[3]; CMC/Tween formulation, MTD study
  toxicity at 200 mg/kg qd: showing toxicity
[3]; CMC/Tween, 3 weeks, previous efficacy studies
  tolerability at 150 mg/kg once a day: tolerated well

## O=C(O)C(=O)O.[NH-][C@@H]1CCCC[C@H]1[NH-].[Pt+2] [Oxaliplatin]
[1]; [7]
  % T/C: 67%
  tumor growth inhibition (TGI): 33%
[1]; [8]
  % T/C: 61%
  tumor growth inhibition (TGI): 39%
[4]; oxaliplatin 5 mg/kg
  tumor growth inhibition (TGI): 21%
[4]; oxaliplatin 10 mg/kg
  tumor growth inhibition (TGI): 26%
[5]; combined with 5-FU and leucovorin, first-line treatment for colorectal cancer
  response rates: 25-40%

## O=c1[nH]cc(F)c(=O)[nH]1 [5-fluorouracil]
[5]; single-agent treatment, advanced colorectal cancer
  response rates: about 10%
